Data: patent publication US10501518B2 (priority 2013, dated 2019)
Each block holds one compound with its values, some of them ahead of it. Starred links: 1 amine or outer side, 2 acyl side, 3 side chain; linkers in the order of their positions; H or OH if unused. Non-standard residues stand in square brackets, D forms with d. Residues, ends and D or L forms follow the SMILES beside them. *: point of attachment. NH(1S,2S-2-CONH2-cPent) = NC(=O)[C@H]1CCC[C@@H]1N*; X12 = O=C([C@H]1CCC[C@@H]1N[*:1])[*:2]; X13 = O=C([C@H]1CNC[C@@H]1N[*:1])[*:2]; ACPC(1S,2S) = N[C@H]1CCC[C@@H]1C(=O)*

Legend:
PTHR = molecular target: T1, PTHR (Homo sapiens, UniProt Q03431); assay: cAMP induction potency, N-terminal modifications and cyclic constraints (Tables 9, 10, 13); format: cell-based; conditions: Table 9
T1 construct: expressed in transfected cells
T1 sequence (Q03431 27-593): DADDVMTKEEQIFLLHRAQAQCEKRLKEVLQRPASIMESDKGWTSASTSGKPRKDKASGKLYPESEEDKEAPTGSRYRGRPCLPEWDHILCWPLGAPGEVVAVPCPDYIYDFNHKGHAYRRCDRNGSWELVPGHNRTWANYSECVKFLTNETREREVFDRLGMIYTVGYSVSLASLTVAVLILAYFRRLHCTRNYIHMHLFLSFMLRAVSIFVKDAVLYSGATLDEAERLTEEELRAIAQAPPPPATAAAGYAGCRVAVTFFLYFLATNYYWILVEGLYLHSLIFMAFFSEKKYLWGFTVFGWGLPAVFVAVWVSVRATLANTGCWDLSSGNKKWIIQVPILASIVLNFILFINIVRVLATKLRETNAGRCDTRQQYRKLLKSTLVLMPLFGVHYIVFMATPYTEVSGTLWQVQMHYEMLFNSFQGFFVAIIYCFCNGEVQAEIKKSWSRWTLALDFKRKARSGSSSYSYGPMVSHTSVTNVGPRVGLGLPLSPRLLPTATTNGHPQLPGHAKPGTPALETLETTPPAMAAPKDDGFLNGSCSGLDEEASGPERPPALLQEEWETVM

PTH2R/PTH1R = assay: cAMP response selectivity between PTH2R and PTH1R; format: cell-based; conditions: most selective; for cAMP response PTH2R/PTH1R: Table 16; for cAMP response PTH1R/PTH2R: Table 17
Excerpt: Selected analogs containing beta-amino acid substitutions selectively signal through one or the other of the two receptors. Without being bound to any underling biological phenomenon or mechanism, PTHR-2 likely serves an alternative function to PTHR-1 as it is highly expressed in the central nervous system. In contrast, PTHR-1 is highly expressed in bone and kidney, but not in the CNS. The analogs disclosed herein are thus useful as therapeutic compounds that a specific agonists or antagonists of PTHR-1 and PTHR-2.

delNT PTHR1 = molecular target: T2, delNT PTHR1 (Homo sapiens, UniProt Q03431, DEL24-181); assay: cAMP-inducing potency at truncated receptor delNT PTHR1; format: cell-based
T2 construct: expressed in transfected cells
T2 sequence (Q03431 with tags, fused parts or gaps DEL24-181): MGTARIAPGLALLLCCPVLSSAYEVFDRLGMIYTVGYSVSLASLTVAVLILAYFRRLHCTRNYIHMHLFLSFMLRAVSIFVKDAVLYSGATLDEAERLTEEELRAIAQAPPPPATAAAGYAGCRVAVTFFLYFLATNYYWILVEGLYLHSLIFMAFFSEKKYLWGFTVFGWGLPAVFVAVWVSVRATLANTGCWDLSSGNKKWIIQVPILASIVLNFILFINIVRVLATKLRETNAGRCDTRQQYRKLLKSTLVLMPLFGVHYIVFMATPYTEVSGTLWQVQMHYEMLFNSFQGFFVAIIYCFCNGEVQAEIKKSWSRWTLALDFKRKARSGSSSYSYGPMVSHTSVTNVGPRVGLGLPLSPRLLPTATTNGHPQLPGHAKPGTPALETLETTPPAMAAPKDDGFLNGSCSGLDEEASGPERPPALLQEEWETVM

R^0 form of rat PTHR-1 = molecular target: T3, R^0 form of rat PTHR-1 (Rattus norvegicus, UniProt P25961); assay: Radio-ligand competition binding to R^0 form of rat PTHR-1; conditions: Table 5; rat PTHR-1; mean ± SEM; read-out: R^0 -log (IC50) (converted)
T3 construct: expressed in transfected cells; host or cells: COS-7
T3 sequence (P25961 27-591): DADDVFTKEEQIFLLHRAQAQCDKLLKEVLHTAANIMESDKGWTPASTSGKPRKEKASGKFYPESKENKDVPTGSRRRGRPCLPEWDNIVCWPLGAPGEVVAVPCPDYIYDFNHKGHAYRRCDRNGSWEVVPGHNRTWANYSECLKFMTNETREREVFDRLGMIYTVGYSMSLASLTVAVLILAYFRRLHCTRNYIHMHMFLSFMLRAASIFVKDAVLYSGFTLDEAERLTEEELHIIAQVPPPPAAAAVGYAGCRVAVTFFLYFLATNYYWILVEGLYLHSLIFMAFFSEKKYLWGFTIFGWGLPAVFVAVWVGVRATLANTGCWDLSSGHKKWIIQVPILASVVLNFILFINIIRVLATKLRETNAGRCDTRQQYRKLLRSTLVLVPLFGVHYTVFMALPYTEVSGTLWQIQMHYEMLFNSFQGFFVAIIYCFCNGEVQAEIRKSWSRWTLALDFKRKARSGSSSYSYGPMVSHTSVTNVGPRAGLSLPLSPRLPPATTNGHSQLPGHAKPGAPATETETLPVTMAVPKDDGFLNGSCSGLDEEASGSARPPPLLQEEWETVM
Excerpt: Data are means (±SEM) of n≥4 experiments, each performed in duplicate.

WT human PTHR-1 = molecular target: T4, WT human PTHR-1 (Homo sapiens, UniProt Q03431); assay: cAMP GloSensor dose-response in GP-2.3 cells expressing human PTHR-1; format: cell-based
T4 construct: bioactivity of the resulting compound in full-length hPTHR-1 and a truncated version; expressed in transfected cells
T4 sequence (Q03431 27-593): T1 sequence (Q03431 27-593)
Protocol: FIGS. 8A, 8B, and 8C constitute a series of graphs depicting cAMP responses in GP-2.3 cells expressing wild-type human parathyroid hormone receptor 1 (PTHR-1-WT). […] Data are means (±SEM) of n>4 experiments, each performed in duplicate.
(§1) For cAMP dose-response assays, monolayers of confluent HEK 293 cells were pre-incubated with buffer containing d-luciferin (0.5 mM) in 96 well plates at room temperature until a stable baseline level of luminescence was established (30 min). Varying concentrations of agonist were then added, and the time course of luminescence response was recorded using a Perkin Elmer plate reader following α/β-peptide addition.

WT rat PTHR-1 = molecular target: T5, WT rat PTHR-1 (Rattus norvegicus, UniProt P25961); assay: cAMP GloSensor dose-response in GR-35 cells expressing rat PTHR-1; format: cell-based; conditions: Table 7; GR-35 cells, 12-16 minutes after ligand addition; mean ± SEM
T5 construct: expressed in transfected cells
T5 sequence (P25961 27-591): T3 sequence (P25961 27-591)
Protocol: FIGS. 9A, 9B, and 9C constitute a series of graphs depicting cAMP responses in GR-35 cells expressing rat PTHR-1-WT. […] Data are means (±SEM) of n>4 experiments, each performed in duplicate.
as §1

cAMP-inducing potency in delNT PTHR-1, in words (delNT PTHR1): weak or no potency
deINT PTHR1 EC50, nM (Means ± SEM) (delNT PTHR1; Table 8, truncated receptor lacking Ala^24-Arg^181): No activity
Compound: CC[C@H](C)[C@@H](CC(=O)N[C@@H](CCC(N)=O)C(=O)N[C@@H](CC(C)C)C(=O)N[C@@H](CCSC)C(=O)N[C@@H](Cc1c[nH]cn1)C(=O)N[C@@H](CC(N)=O)C(=O)N[C@@H](CC(C)C)C(=O)NCC(=O)N[C@@H](CCCCN)C(=O)N[C@@H](Cc1c[nH]cn1)C(=O)N[C@@H](CC(C)C)C(=O)N[C@@H](CC(N)=O)C(=O)N[C@@H](CO)C(=O)N[C@@H](CCSC)C(=O)N[C@@H](CCC(=O)O)C(=O)N[C@@H](CCCNC(=N)N)C(=O)N[C@H](C(=O)N[C@@H](CCC(=O)O)C(=O)N[C@@H](Cc1c[nH]c2ccccc12)C(=O)N[C@@H](CC(C)C)C(=O)N[C@@H](CCCNC(=N)N)C(=O)N[C@@H](CCCCN)C(=O)N[C@@H](CCCCN)C(=O)N[C@@H](CC(C)C)C(=O)N[C@@H](CCC(N)=O)C(=O)N[C@@H](CC(=O)O)C(=O)N[C@H](C(=O)N[C@@H](Cc1c[nH]cn1)C(=O)N[C@@H](CC(N)=O)C(=O)N[C@@H](Cc1ccccc1)C(N)=O)C(C)C)C(C)C)NC(=O)[C@H](CCC(=O)O)NC(=O)[C@H](CO)NC(=O)[C@@H](NC(=O)[C@@H](N)CO)C(C)C [β^3Ile(5)]

IC50 (R^0 form of rat PTHR-1): 4.57 nM
EC50 (WT human PTHR-1; Table 1, GP-2.3 cells, read-out: cAMP (hPTHR-1) EC50): 0.58 nM
cAMP (hPTHR-1) Max (WT human PTHR-1; Table 1, luminescence counts per second relative to PTH(1-34), 12-16 minutes after ligand addition): 1.03
agonist activity at hPTHR-1 (cAMP response), in words (WT human PTHR-1; maximum cAMP response compared with PTH(1-34)): full agonists of hPTHR-1
Compound: CC[C@H](C)[C@H](NC(=O)[C@H](CCC(=O)O)NC(=O)[C@H](CO)NC(=O)[C@@H](NC(=O)[C@@H](N)CO)C(C)C)C(=O)N[C@@H](CCC(N)=O)C(=O)N[C@@H](CC(C)C)C(=O)N[C@@H](CCSC)C(=O)N[C@@H](Cc1c[nH]cn1)C(=O)N[C@@H](CC(N)=O)C(=O)N[C@@H](CC(C)C)C(=O)NCC(=O)N[C@@H](CCCCN)C(=O)N[C@@H](Cc1c[nH]cn1)C(=O)N[C@@H](CC(C)C)C(=O)N[C@@H](CC(N)=O)C(=O)N[C@@H](CO)C(=O)N[C@@H](CCSC)C(=O)N[C@@H](CCC(=O)O)C(=O)N[C@@H](CCCNC(=N)N)C(=O)N[C@H](C(=O)N[C@@H](CCC(=O)O)C(=O)N[C@@H](Cc1c[nH]c2ccccc12)C(=O)N[C@@H](CC(C)C)C(=O)N[C@@H](CCCNC(=N)N)CC(=O)N[C@@H](CCCCN)C(=O)N[C@@H](CCCCN)C(=O)N[C@@H](CC(C)C)C(=O)N[C@@H](CCC(N)=O)CC(=O)N[C@@H](CC(=O)O)C(=O)N[C@H](C(=O)N[C@@H](Cc1c[nH]cn1)C(=O)N[C@@H](CC(N)=O)CC(=O)N[C@@H](Cc1ccccc1)C(N)=O)C(C)C)C(C)C [C3]
Max (WT human PTHR-1; Table 6, GP-2.3 cells, 12-16 minutes after ligand addition, mean ± SEM): 223 ± 14 luminescence counts per second × 10^−3
Max (WT rat PTHR-1): 68 ± 77 luminescence counts per second × 10−3

cAMP-inducing potency in delNT PTHR-1, in words (delNT PTHR1): weak or no potency
Compound: CC[C@H](C)[C@H](NC(=O)[C@H](CCC(=O)O)NC(=O)[C@H](CO)NC(=O)[C@@H](NC(=O)[C@@H](N)CO)C(C)C)C(=O)N[C@@H](CCC(N)=O)C(=O)N[C@H](CC(=O)N[C@@H](CCSC)C(=O)N[C@@H](Cc1c[nH]cn1)C(=O)N[C@@H](CC(N)=O)C(=O)N[C@@H](CC(C)C)C(=O)NCC(=O)N[C@@H](CCCCN)C(=O)N[C@@H](Cc1c[nH]cn1)C(=O)N[C@@H](CC(C)C)C(=O)N[C@@H](CC(N)=O)C(=O)N[C@@H](CO)C(=O)N[C@@H](CCSC)C(=O)N[C@@H](CCC(=O)O)C(=O)N[C@@H](CCCNC(=N)N)C(=O)N[C@H](C(=O)N[C@@H](CCC(=O)O)C(=O)N[C@@H](Cc1c[nH]c2ccccc12)C(=O)N[C@@H](CC(C)C)C(=O)N[C@@H](CCCNC(=N)N)C(=O)N[C@@H](CCCCN)C(=O)N[C@@H](CCCCN)C(=O)N[C@@H](CC(C)C)C(=O)N[C@@H](CCC(N)=O)C(=O)N[C@@H](CC(=O)O)C(=O)N[C@H](C(=O)N[C@@H](Cc1c[nH]cn1)C(=O)N[C@@H](CC(N)=O)C(=O)N[C@@H](Cc1ccccc1)C(N)=O)C(C)C)C(C)C)CC(C)C [β^3Leu(7)]

The next lines start with the compound.

Compound: CSCC[C@H](NC(=O)[C@H]1CCC[C@@H]1NC(=O)[C@H](CCC(N)=O)NC(=O)[C@H]1CCC[C@@H]1NC(=O)[C@H](CCC(=O)O)NC(=O)[C@H](CO)NC(=O)[C@@H](NC(=O)[C@H]1CCC[C@@H]1N)C(C)C)C(=O)N[C@@H](Cc1c[nH]cn1)C(=O)N[C@@H](CC(N)=O)C(=O)N[C@@H](CC(C)C)C(=O)NCC(=O)N[C@@H](CCCCN)C(=O)N[C@H]1CCC[C@@H]1C(=O)N[C@@H](CC(C)C)C(=O)N[C@@H](CC(N)=O)C(=O)N[C@@H](CO)C(=O)N[C@H]1CCC[C@@H]1C(=O)N[C@@H](CCC(=O)O)C(=O)N[C@@H](CCCNC(=N)N)C(=O)N[C@H](C(=O)N[C@H]1CNC[C@@H]1C(=O)N[C@@H](Cc1c[nH]c2ccccc12)C(=O)N[C@@H](CC(C)C)C(=O)N[C@@H](CCCNC(=N)N)C(=O)N[C@H]1CNC[C@@H]1C(=O)N[C@@H](CCCCN)C(=O)N[C@@H](CC(C)C)C(=O)N[C@@H](CCC(N)=O)C(=O)N[C@H]1CCC[C@@H]1C(=O)N[C@H](C(=O)N[C@@H](Cc1c[nH]cn1)C(=O)N[C@@H](CC(N)=O)C(=O)N[C@H]1CCC[C@@H]1C(N)=O)C(C)C)C(C)C [FcycD6_ACPC(1,5,7), XVSEXQXMHNLGKXLNSXERVZWLRZKLQXVHNX-NH2] ({ACPC(1S,2S)}-VSE[X12]Q[X12]MHNLGK[X12]LNS[X12]ERV[X13]WLR[X13]KLQ[X12]VHN-{NH(1S,2S-2-CONH2-cPent)}; N-terminus assumed)
Fold PTH (PTHR): 234
cAMP response PTH2R/PTH1R (PTH2R/PTH1R): 45

Compound: hPTHrP(1-36): parathyroid hormone-related protein fragment, comparator in the PTH2R/PTH1R cAMP response tables
cAMP response PTH2R/PTH1R (PTH2R/PTH1R): 0.04
cAMP response PTH1R/PTH2R (PTH2R/PTH1R): 27

Compound: hTIP(1-39): comparator peptide in the PTH2R/PTH1R cAMP response tables (SLALADDAAFRERARLLAALERRHWLNSYMHKLLVLDAP)
cAMP response PTH2R/PTH1R (PTH2R/PTH1R): 165
cAMP response PTH1R/PTH2R (PTH2R/PTH1R): 0.01
